Reference: patent publication US20060093580A1, “Tolerogenic vaccine and method” (priority 2004, published 2006)
Values joined by “and” are separate entries in the source; they are usually repeats but may differ in a detail not shown here. Equal entries are not always repeated. “Also recorded” adds a separate entry of the source. Where two headings read alike, the source gives them in different places.

Legend:
PLD [1] = assay: TCR-induced PLD activity (3H-oleate labelling, PA and Pet by TLC); type: cell-based, mouse; details: 100 μM, plate-bound anti-CD3 40 minutes, 0.5% ethanol, primary T cells
Description: FIG. 5 Effect of adenosine on TCR-induced PLD activation. (A) Phosphatidic acid production by primary CD4 T cells stimulated with anti-CD3 antibodies in the presence of ethanol (open bar) and adenosine (closed bar) compared with unstimulated T cells. (B) Phosphatidylethanol (Pet) production by primary CD4 Mouse CD4 T cells stimulated with anti-CD3 antibodies in the presence of ethanol (open bar) and adenosine (closed bar) compared with unstimulated T cells.
Mouse CD4 T cells were labeled with ^3H-oleate to measure PLD activity (Zheng, et al. (2003), Biochim. Biophys. Acta. 1643(1-3):25-36). Cells were then washed and activated by plate-bound anti-CD3 for 40 minutes in the presence of 0.5% of ethanol (open bar). Effect of adenosine was examined using the medium containing 100 μM of adenosine (closed bar). Cells were harvested and lipid extracts of cells were separated on TLC plates and bands corresponding to phosphatidic acid (PA) (FIG. 5A) and phosphatidylethanol (Pet) (FIG. 5B) were excised and counted by liquid scintillation.

PLD [2] = details: Thibault 2000; Grenier 2003; cited from earlier work
[3] = system: splenic CD4 and CD8 T cells; assay: CFSE cell division of anti-CD3-stimulated splenic T cells; type: cell-based, mouse; details: 0.3% alcohol, anti-CD3 + irradiated APCs, 72 hours
Protocol: (§1) For determination of cell division, T cells were labeled with 1 μM CFSE (Molecular Probes, Eugene, Oreg.) for 15 minutes at 37° C. CFSE-labeled T cells (5×10^5 cells/ml) were cultured with 0.2 μg/ml of anti-CD3 with APCs (T cell-depleted splenocytes, γ-irradiated with 2000 rads, 8×10^5 cells/ml). […] After 72 hours, cells were harvested and stained with antibody against CD4 and CD8. The number of cell divisions was determined by flow cytometry. Exogenous IL-2 was added at 50 units/ml where indicated. For the proliferation assay, ^3H-thymidine (0.5 μCi/well) was added for the last 6 hours of culture. Cytokine assays were performed by enzyme-linked immunoassays as previously described (Singh, N. et al. (1999), J. Immunol. 163:2373-2377).

CD4^+CD25^− T cells [4] = assay: 3H-thymidine proliferation after anti-CD3 stimulation with or without exogenous IL-2; type: cell-based, mouse; details: 0.3%
Protocol: (§2) (B) 1-butanol effect on the proliferative response of CD4^+CD25^− and CD4^+CD25^+ T cells to anti-CD3 or anti-CD3^+ exogenous IL-2. […] Proliferation of cells was measured as in FIG. 1B.
(§3) (D) CD4^+CD25^− and CD4^+CD25^+ T cells (2×10^4 cells/well) were stimulated by anti-CD3 in the absence (left panel) or presence (right panel) of exogenous IL-2. […] [3H]-thymidine uptake was measured 72 hours later.
as §1
We also examined the effect of 1-alcohol on the proliferation of CD4^+CD25^− and CD4^+CD25^+ cells. CD4^+CD25^− and CD4^+CD25^+ cells were isolated from splenocytes using a MoFlo cell sorter. Each cell type was stimulated with anti-CD3 antibody in the presence of irradiated APCs with or without the addition of exogenous IL-2. Proliferation was measured by ^3H-thymidine incorporation on day 3.

CD4^+CD25^+ T cells [5] = details: 0.3%, activation by anti-CD3 and IL-2
Protocol: as §2, §3, §1
We also examined the effect of 1-alcohol on the proliferation of CD4^+CD25^− and CD4^+CD25^+ cells. CD4^+CD25^− and CD4^+CD25^+ cells were isolated from splenocytes using a MoFlo cell sorter. […] Proliferation was measured by ^3H-thymidine incorporation on day 3.

CD4^+CD25^− T cells [6] = system: CD4^+CD25^− T cells
Protocol: (I) Cytokine production by 1-but and t-but-treated CD4^+25^− and CD4^+25^+ T cells. CD4^+25^− and CD4^+25^+ T cells were stimulated as described in FIG. 3A. The same supernatants were used to measure the amount of IL-4 (left panel) and IFN-γ (right panel). Closed bars show medium-treated T cells, gray bars show t-but- treated T cells, and open bars show 1-but-treated T cells.
(A) Effect of 1-butanol on anti-CD3-induced IL-2 production. […] IL-2 production was determined by ELISA of culture supernatants obtained after 24 hours of stimulation.
as §1

CD4^+CD25^− T cells [7] = assay: CD25 expression by flow cytometry after anti-CD3 stimulation; type: cell-based, mouse; details: anti-CD3 + APCs, 16 hours
Protocol: (§4) After 16 hours of stimulation, expression of CD25 was analyzed by flow cytometry. Dotted lines represent the staining level of unstimulated cells.

CD4^+CD25^+ T cells [8] = system: CD4^+CD25^+ T cells
Protocol: as §4

splenic CD4^+ T cells = assay: Anti-CD3-induced elevation of intracellular Ca2+ (Fura2-AM); type: cell-based, mouse; details: added together with stimulating antibody
Protocol: (C) 1-butanol effect on anti-CD3-induced elevation of intracellular Ca2^+. CD4 T cells were labeled with Fura2-AM and activated with biotin conjugated anti-CD3 and streptavidin. […] Levels of Ca2^+ were determined by the ratio of fluorescence at 340/380 nm.
To further elucidate the role of PLD in T cell activation, TCR proximal signaling events were examined. First, the effect of 1-butanol on the elevation of intracellular Ca^2+ was determined. […] Elevation of intracellular Ca^2+ is required for activation of transcription factors, such as NF-AT, which are essential for CD25 and IL-2 expression (Crabtree, G. R. and Olson, E. N. (2002), Cell 109(Suppl):867-879; Hogan, P. G. et al. (Sep. 15, […]), Genes Dev. 17:2205-[…]).

ERK = assay: Anti-CD3-induced ERK activation (phospho-ERK staining); type: cell-based, mouse; details: anti-CD3 + APCs, 3 hours
Protocol: (D) Effect of 1-butanol on antl-CD3-induced ERK activation. CD4 T cells were stimulated with anti-CD3 and APCs for 3 hours and stained with antibody against phospho-ERK. […] Thick lines show the data from stimulated cells and thin lines show data from unstimulated cells.
TCR stimulation also induces activation of the Ras/ERK pathway, and sustained ERK activation is essential for IL-2 production (Iwashima, M. (May, 2003), Immunol. Review 192; T. Koike et al., J. Biol. Chem. 278:15685-15692).

CD4 Foxp3^+ cells = assay: Foxp3 and CTLA-4 flow cytometry of CD4 T cells expanded with alcohol; type: cell-based, mouse
Protocol: (B) Foxp3 and CTLA4 levels were determined by flow cytometry analysis of CD4^med, CD4^t-but or CD4^1-but cells at day 1 (upper panels) and day 8 (lower panels).
After 3 days of culture with alcohol, cells were expanded in the medium free of alcohol but containing IL-2 for 4 days and analyzed by flow cytometry with Foxp3 and CTLA-4.

CD4^+CD25^− T cells [9] = assay: In vitro suppression assay; type: cell-based, mouse; details: 1-butanol and anti-CD3 treatment
Protocol: CD4^+CD25^− T cells (2.5×10^4 cells) were cultured with graded doses of CD4^med cells (open circles), CD4^t-but cells (open squares) or CD4^1-but cells (closed squares) for 72 hours with anti-CD3 antibody and APCs. Proliferation of cells was measured as in (B).
Cells were cultured as in (C) using equal numbers of CD4^+CD25^− cells and CD4^med cells, CD4^1-but cells, or CD4^t-but cells. Production of IL-2 after 24 hours of co-culture was measured.
(H) Effect of CD4^med, CD4^t-but, and CD4^1-but cells on cytokine production by CD4^+25^− T cells. CD4^+25^− T cells were stimulated and co-cultured with CD4^med cells (med), CD4^t-but cells (t-but), or CD4^1-but cells (1-but) as described in FIG. 1D. IL-4 and IFN-γ in the culture supernatants were measured by ELISA.
Suppression of freshly isolated CD4^+CD25^− cells was measured as in FIG. 1C.
Suppressive effects were measured by ^3H-thymidine incorporation or by cytokine production.

[10] = anti-CD3 + APCs, 3H-thymidine at 72 hours

Nc1ncnc2c1ncn2[C@@H]1O[C@H](CO)[C@@H](O)[C@H]1O [adenosine]
PLD activity induced by TCR stimulation (PLD [1]): completely abrogated | PLD activation in neutrophils (PLD [2]): inhibit PLD activation

CCCCO [1-butanol]
anti-CD3 induced cell division [3]: abrogated cell division | reduction of proliferation of CD4^+CD25^− cells (CD4^+CD25^− T cells [4]; [10]): 80% | proliferation of treated CD4^+CD25^− cells on addition of exogenous IL-2 (CD4^+CD25^− T cells [4]; anti-CD3 + exogenous IL-2): did not restore proliferation; also recorded: did not rescue the proliferation | effect on proliferation of CD4^+CD25^+ T cells (CD4^+CD25^+ T cells [5]): no effect | production of IL-2 by CD4^+CD25^− T cells (CD4^+CD25^− T cells [6]; anti-CD3, 24 hours, ELISA): blocked production | IFN-γ production (CD4^+CD25^− T cells [6]; anti-CD3, ELISA): abrogated | IL-4 production (CD4^+CD25^− T cells [6]; anti-CD3, ELISA): abrogated | expression of CD25 by CD4^+CD25^− T cells (CD4^+CD25^− T cells [7]): blocked the expression | up-regulation of CD25 expression in CD4^+CD25^+ T cells (CD4^+CD25^+ T cells [8]; anti-CD3 + APCs, 16 hours): not affected | expression of CD69 by CD4^+CD25^+ T cells (CD4^+CD25^+ T cells [8]; not shown): did not impair | anti-CD3-induced elevation of intracellular Ca^2+ (splenic CD4^+ T cells): substantially impaired | CD3-induced elevation of phosphorylated ERK (ERK): abolished | expansion of Foxp3^+ cells (total cell number) (CD4 Foxp3^+ cells; in one week): more than 10 fold | suppressive activity of population expanded from total CD4^+ T cells (CD4^+CD25^− T cells [9]): strong suppressive activity | suppressive function of population expanded from CD4^+ T cells with CD25^+ cells removed (CD4^+CD25^− T cells [9]): no suppressive function | Numbers of live cells obtained from 1 × 10^6 CD4^+ T cells (CD4^+ T cells): 3.1 ± 0.3 ×10^6 and 2.5 ± 0.5 ×10^6 and 3.4 ± 0.5 ×10^6 | cells recovered from 1×10^6 CD4^+CD25^− cells (CD4^+ T cells): 5×10^5 cells | cells recovered from 1×10^6 total CD4^+ cells (CD4^+ T cells): 3.6×10^6 cells | decrease in final yield on removal of CD25^+ T cells prior to treatment (CD4^+ T cells): 80% | viability or surface antigen expression after pre-incubation (CD4^+ T cells): no difference

CC(C)(C)O [t-butanol, Tert-butanol]
anti-CD3 induced cell division [3]: no significant effect | effect on proliferation of CD4^+CD25^− cells (CD4^+CD25^− T cells [4]; [10]): no significant effect | expression of CD25 by CD4^+CD25^− T cells (CD4^+CD25^− T cells [7]): did not elicit a significant effect | anti-CD3-induced elevation of intracellular Ca^2+ (splenic CD4^+ T cells): No significant effect | CD3-induced elevation of phosphorylated ERK (ERK): no detectable effect | cells expressing Foxp3 and CTLA-4 (in words) (CD4 Foxp3^+ cells; 3 days with 0.3% alcohol, then 4 days IL-2 without alcohol): almost no cells | Numbers of live cells obtained from 1 × 10^6 CD4^+ T cells (CD4^+ T cells; 0.3% alcohol, anti-CD3 + APCs + IL-2, day 7, mean +/− standard deviation, experiments 1-3): 18.5 ± 2.1 ×10^6 and 13 ± 2 ×10^6 and 14 ± 2 ×10^6
